Reference: patent publication US4385058A, “Pyrimidone derivatives” (Smith Kline & French Laboratories Limited, priority 1980, dated 1983)

System: histamine H2 -receptors
Test: Inhibition of histamine-stimulated acid secretion in the Heidenhain pouch dog
Type: in vivo
Conditions: intravenous administration; dose levels adjusted to produce similar peak responses
Excerpt: Heidenhain pouch dogs can be prepared and used as described in European Specification No. 15138.

With `Cc1ccc(Cc2cnc(NCCSCc3cc(CN(C)C)ccn3)[nH]c2=O)cn1` [Example 1, 2-[2-(4-dimethylaminomethyl-2-pyridylmethylthio)ethylamino]-5-(6-methyl-3-pyridylmethyl)-4-pyrimidone] the “duration of activity versus cimetidine” value was “longer duration of activity than cimetidine”.
